{
  "source": "paper PMC8167934",
  "about": "(Cancer letters, 2021)",
  "key": {"[1]": {"target": "thioesterase (TE) domain of FASN (Homo sapiens, UniProt P49327)", "sequence (P49327 2207-2511 limits assumed)": "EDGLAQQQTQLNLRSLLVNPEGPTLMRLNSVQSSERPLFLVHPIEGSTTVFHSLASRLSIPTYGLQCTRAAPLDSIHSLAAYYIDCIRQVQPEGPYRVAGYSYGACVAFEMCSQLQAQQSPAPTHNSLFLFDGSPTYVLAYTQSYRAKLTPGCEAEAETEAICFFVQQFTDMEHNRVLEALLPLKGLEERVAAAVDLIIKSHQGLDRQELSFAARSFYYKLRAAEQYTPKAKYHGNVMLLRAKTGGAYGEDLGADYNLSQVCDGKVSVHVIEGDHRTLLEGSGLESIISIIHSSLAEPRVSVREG", "experiment": "TE activity assay with recombinant TE", "conditions": "recombinant TE 500 nM"}, "breast cancer patients": {"system": "breast cancer patients", "experiment": "Retrospective EMR analysis of overall survival of breast cancer patients", "assay_type": "in vivo, human"}, "MCF7/FASN cells": {"system": "MCF7/FASN cells", "experiment": "Colony formation assay, MCF7 cells with ectopic FASN over-expression", "assay_type": "cell-based, human", "conditions": "ectopic FASN over-expression vs MCF7/Vec"}, "M3K/Sh cells": {"system": "M3K/Sh cells", "experiment": "Colony formation assay, MCF7/AdVp3000 cells with FASN knockdown", "assay_type": "cell-based, human", "conditions": "FASN knockdown vs M3K/Scr"}, "PARP1 expression": {"system": "PARP1 expression", "experiment": "Western blot analysis of PARP1 expression", "assay_type": "cell-based, human", "conditions": "MCF7, T47D, MDA-MB-231 and MDA-MB-468 cells, different concentrations"}, "[2]": {"system": "NHEJ activity in MCF7 cells", "experiment": "Host cell reactivation assay of NHEJ activity, MCF7", "assay_type": "cell-based, human"}, "[3]": {"system": "NHEJ activity in MDA-MB-468 cells", "experiment": "Host cell reactivation assay of NHEJ activity, MDA-MB-468", "assay_type": "cell-based, human", "conditions": "10 µM twice a day for three days"}, "[4]": {"system": "homologous recombination activity", "experiment": "Host cell reactivation assay of homologous recombination activity", "assay_type": "cell-based, human", "conditions": "10 µM twice a day for three days"}, "γ-H2AX in MCF7 cells": {"system": "γ-H2AX in MCF7 cells", "experiment": "γ-H2AX level", "assay_type": "cell-based, human"}, "[5]": {"system": "γ-H2AX in MDA-MB-468 cells", "experiment": "γ-H2AX level", "assay_type": "cell-based, human"}, "MCF7 cells [6]": {"system": "MCF7 cells", "experiment": "Flow cytometry of apoptosis and cell cycle, MCF7", "assay_type": "cell-based, human"}, "MDA-MB-468 cells [7]": {"system": "MDA-MB-468 cells", "experiment": "Flow cytometry of apoptosis and cell cycle, MDA-MB-468", "assay_type": "cell-based, human"}, "MCF7 cells [8]": {"system": "MCF7 cells", "experiment": "Colony formation combination study with doxorubicin", "assay_type": "cell-based, human", "conditions": "combination with doxorubicin at potency ratios 50/50, 25/75, 75/25"}, "MDA-MB-468 cells [9]": {"system": "MDA-MB-468 cells", "experiment": "Colony formation combination study with doxorubicin", "assay_type": "cell-based, human", "conditions": "combination with doxorubicin at potency ratios 50/50, 25/75, 75/25"}, "MCF7 cells [10]": {"system": "MCF7 cells", "experiment": "Colony formation combination with ionizing radiation, MCF7", "assay_type": "cell-based, human", "conditions": "pre-treated with 10 µM once a day for 3 days"}, "MDA-MB-468 cells [11]": {"system": "MDA-MB-468 cells", "experiment": "Colony formation combination with ionizing radiation, MDA-MB-468", "assay_type": "cell-based, human", "conditions": "pre-treated with 10 µM once a day for 3 days"}, "TNBC patients": {"system": "TNBC patients", "conditions": "high dose omeprazole added to neoadjuvant TNBC treatment; cited from earlier work"}, "db/+ and db/db mice": {"system": "db/+ and db/db mice", "conditions": "chronic use, cited from earlier work"}, "[12]": {"conditions": "esomeprazole users vs omeprazole users, pairwise comparison"}, "[13]": {"conditions": "users of the PPI vs non-PPI users"}, "[14]": {"conditions": "10–20 mg users vs non-PPI users"}},
  "data": [
    {"smiles": "Cc1c(OCC(F)(F)F)ccnc1C[S@@+]([O-])c1nc2ccccc2[nH]1", "note": "[R-lansoprazole, dexlansoprazole]", "values": [
      {"measurement": "Inhibition of TE activity of FASN (Ki), enantiomer comparison", "setting": "[1]", "result": "significantly more effective than the S-lansoprazole"}
    ]},
    {"smiles": "COc1ccc2nc([S@@+]([O-])Cc3ncc(C)c(OC)c3C)[nH]c2c1", "note": "[esomeprazole]", "values": [
      {"measurement": "Overall survival, multivariant HR", "setting": "breast cancer patients; 20 mg users vs non-PPI users", "result": 0.73},
      {"measurement": "Overall survival, univariant HR", "setting": "breast cancer patients; 20 mg users vs non-PPI users", "result": 1.0},
      {"measurement": "Overall survival, multivariant HR", "setting": "breast cancer patients; 40 mg users vs non-PPI users", "result": 0.33},
      {"measurement": "Overall survival, univariant HR", "setting": "breast cancer patients; 40 mg users vs non-PPI users", "result": 0.3},
      {"measurement": "Overall survival, multivariate HR", "setting": "breast cancer patients; [12]", "result": 1.64},
      {"measurement": "Overall survival, univariate HR", "setting": "breast cancer patients; [12]", "result": 1.62},
      {"measurement": "Overall survival, univariate HR", "setting": "breast cancer patients; [13]", "result": 0.52}
    ]},
    {"smiles": "Cc1c(OCC(F)(F)F)ccnc1C[S+]([O-])c1nc2ccccc2[nH]1", "note": "(centres unmarked) [lansoprazole]", "values": [
      {"measurement": "Lansoprazole resistance (relative resistance factor)", "setting": "MCF7/FASN cells", "result": "increased"},
      {"measurement": "Lansoprazole resistance (relative resistance factor)", "setting": "M3K/Sh cells", "result": "reduced"},
      {"measurement": "PARP1 expression", "setting": "PARP1 expression", "result": "dose-dependently reduced"},
      {"measurement": "NHEJ activity", "setting": "[2]; MCF7, 10 µM twice a day for three days", "result": "significantly reduced"},
      {"measurement": "NHEJ activity with ectopic FASN over-expression", "setting": "[2]; MCF7 cells over-expressing ectopic FASN", "result": "rescued NHEJ activity"},
      {"measurement": "NHEJ activity", "setting": "[3]", "result": "significantly reduced"},
      {"measurement": "Homologous recombination activity", "setting": "[4]", "result": "did not change"},
      {"measurement": "γ-H2AX level", "setting": "γ-H2AX in MCF7 cells; MCF7, lansoprazole alone", "result": "increased γ-H2AX level in a dose-dependent manner"},
      {"measurement": "γ-H2AX level at 4 hrs post-IR versus 1 hr", "setting": "γ-H2AX in MCF7 cells; MCF7, lansoprazole pre-treatment, 5 Gy IR", "result": "no reduction"},
      {"measurement": "Doxorubicin-induced γ-H2AX production", "setting": "γ-H2AX in MCF7 cells; MCF7, lansoprazole with doxorubicin", "result": "synergistically increased"},
      {"measurement": "Lansoprazole-induced γ-H2AX increase with ectopic FASN over-expression", "setting": "γ-H2AX in MCF7 cells; over-expressing ectopic FASN", "result": "ablated"},
      {"measurement": "γ-H2AX level", "setting": "[5]; MDA-MB-468, lansoprazole alone", "result": "increased γ-H2AX level in a dose-dependent manner"},
      {"measurement": "γ-H2AX level at 4 hrs post-IR versus 1 hr", "setting": "[5]; MDA-MB-468, lansoprazole pre-treatment, 5 Gy IR", "result": "no reduction"},
      {"measurement": "Doxorubicin-induced γ-H2AX production", "setting": "[5]; MDA-MB-468, lansoprazole with doxorubicin", "result": "synergistically increased"},
      {"measurement": "Apoptosis", "setting": "MCF7 cells [6]", "result": "dose-dependently induced apoptosis"},
      {"measurement": "Apoptosis", "setting": "MDA-MB-468 cells [7]; MDA-MB-468", "result": "dose-dependently induced apoptosis"},
      {"measurement": "Cell cycle arrest phase", "setting": "MDA-MB-468 cells [7]; MDA-MB-468, dose-dependent", "result": "S phase"},
      {"measurement": "Combination index", "setting": "MCF7 cells [8]", "result": "< 1.0"},
      {"measurement": "Combination index", "setting": "MDA-MB-468 cells [9]", "result": "< 1.0"},
      {"measurement": "Sensitization to IR treatment", "setting": "MCF7 cells [10]", "result": "sensitized"},
      {"measurement": "Sensitization to IR treatment", "setting": "MDA-MB-468 cells [11]", "result": "sensitized"},
      {"measurement": "Overall survival, univariate HR", "setting": "breast cancer patients; [13]", "result": 0.20}
    ]},
    {"smiles": "COc1ccc2[nH]c([S+]([O-])Cc3ncc(C)c(OC)c3C)nc2c1", "note": "(centres unmarked) [omeprazole]", "values": [
      {"measurement": "Overall survival, multivariant HR", "setting": "breast cancer patients; 40 mg users vs non-PPI users", "result": 0.12},
      {"measurement": "Overall survival, univariant HR", "setting": "breast cancer patients; 40 mg users vs non-PPI users", "result": 0.21},
      {"measurement": "Overall survival, multivariant HR", "setting": "breast cancer patients; [14]", "result": 0.28},
      {"measurement": "Overall survival, univariant HR", "setting": "breast cancer patients; [14]", "result": 0.33},
      {"measurement": "Overall survival, univariate HR", "setting": "breast cancer patients; [13]", "result": 0.33},
      {"measurement": "FASN activities in tumors", "setting": "TNBC patients", "result": "inhibited"},
      {"measurement": "Toxicity", "setting": "TNBC patients", "result": "without adding toxicity"},
      {"measurement": "pCR rate", "setting": "TNBC patients", "result": "~ 74%"}
    ]},
    {"smiles": "COc1ccnc(C[S+]([O-])c2nc3ccc(OC(F)F)cc3[nH]2)c1OC", "note": "(centres unmarked) [pantoprazole]", "values": [
      {"measurement": "Overall survival, univariate HR", "setting": "breast cancer patients; [13]", "result": 0.43}
    ]},
    {"smiles": "CC12C[C@@]34C=CC(=O)[C@@](C)(CCC(=O)Nc5c(O)ccc(C(=O)O)c5O)C3[C@H](CC1C4)O2", "note": "(some centres unmarked) [platensimycin]", "values": [
      {"measurement": "Insulin sensitivity", "setting": "db/+ and db/db mice; db/+ mice fed with high-fructose diet", "result": "improved insulin sensitivity"},
      {"measurement": "Ambient glucose levels", "setting": "db/+ and db/db mice; db/db mice", "result": "reduced ambient glucose levels"}
    ]}
  ]
}
